Assay results from patent US10239835B2, “N-alkylaryl-5-oxyaryl-octahydro-cyclopenta[c]pyrrole negative allosteric modulators of NR2B” (Luc Therapeutics, Inc., priority 2014, dated 2019).
Where two headings read alike, the source gives them in different places.

Legend:
[1] = molecular target: HEK293 cells expressing NR1/NR2B (Homo sapiens (Human), UniProt Q05586+Q13224); experiment: NR2B NAM Assay (FDSS Ca2+ influx cell assay); assay type: cell-based; conditions: NR2B NAM assay, class of inhibitory concentration; read-out: Activity Category
HEK293 cells expressing NR1/NR2B (Homo sapiens (Human), UniProt Q05586+Q13224), sequence (Q13224 27-1484, other chains not shown): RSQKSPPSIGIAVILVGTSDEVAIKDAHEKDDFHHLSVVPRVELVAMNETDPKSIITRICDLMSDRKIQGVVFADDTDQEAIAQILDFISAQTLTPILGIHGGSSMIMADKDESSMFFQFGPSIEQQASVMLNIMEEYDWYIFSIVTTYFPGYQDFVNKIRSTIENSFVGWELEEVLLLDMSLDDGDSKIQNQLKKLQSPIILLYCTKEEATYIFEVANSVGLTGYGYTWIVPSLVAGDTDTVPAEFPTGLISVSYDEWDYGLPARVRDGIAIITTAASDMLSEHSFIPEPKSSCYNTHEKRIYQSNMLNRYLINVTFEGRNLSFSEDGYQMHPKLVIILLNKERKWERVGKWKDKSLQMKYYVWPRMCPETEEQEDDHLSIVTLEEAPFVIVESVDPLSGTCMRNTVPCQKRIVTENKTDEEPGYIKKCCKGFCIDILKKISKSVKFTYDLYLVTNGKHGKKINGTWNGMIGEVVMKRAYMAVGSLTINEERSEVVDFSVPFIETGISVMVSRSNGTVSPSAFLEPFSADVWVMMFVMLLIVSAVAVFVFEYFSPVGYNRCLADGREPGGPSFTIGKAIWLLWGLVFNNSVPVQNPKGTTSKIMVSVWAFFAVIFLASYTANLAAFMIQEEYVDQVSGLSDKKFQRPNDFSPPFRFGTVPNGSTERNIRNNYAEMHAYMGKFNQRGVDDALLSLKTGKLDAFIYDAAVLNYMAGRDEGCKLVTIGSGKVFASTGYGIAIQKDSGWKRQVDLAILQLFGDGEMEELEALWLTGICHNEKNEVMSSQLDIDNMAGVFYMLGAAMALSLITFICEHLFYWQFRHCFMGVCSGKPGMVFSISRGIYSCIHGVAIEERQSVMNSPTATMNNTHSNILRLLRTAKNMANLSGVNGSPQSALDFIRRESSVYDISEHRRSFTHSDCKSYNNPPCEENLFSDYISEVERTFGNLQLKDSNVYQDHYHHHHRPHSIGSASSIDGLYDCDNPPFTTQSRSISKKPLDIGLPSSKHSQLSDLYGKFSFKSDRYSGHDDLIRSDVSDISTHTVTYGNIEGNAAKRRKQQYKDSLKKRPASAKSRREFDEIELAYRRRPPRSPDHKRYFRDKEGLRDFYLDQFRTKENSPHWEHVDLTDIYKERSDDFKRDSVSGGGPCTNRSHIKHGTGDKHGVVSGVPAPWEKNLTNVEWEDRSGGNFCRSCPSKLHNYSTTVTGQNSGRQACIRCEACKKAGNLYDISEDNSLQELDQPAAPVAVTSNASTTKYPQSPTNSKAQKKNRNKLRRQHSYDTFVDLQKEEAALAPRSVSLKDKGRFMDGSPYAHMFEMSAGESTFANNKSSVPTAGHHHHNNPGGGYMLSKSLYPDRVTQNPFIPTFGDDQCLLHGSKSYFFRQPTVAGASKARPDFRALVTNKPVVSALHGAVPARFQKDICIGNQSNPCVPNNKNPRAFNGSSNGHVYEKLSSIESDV
Protocol: (§1) Cell Culture and plating: HEK293 cells expressing NR1/NR2B (Chantest, Cleveland, Ohio) were grown to 70-80% confluency as an adherent monolayer in standard tissue culture flasks at 37° C., 5% CO2 per supplier's instructions. NR2B expression was induced by incubation with 0.3-0.4 μg/ml tetracycline in the presence of 4 mM ARL-15896 for 18-24 hours under the same growth conditions, then transferred to 30° C. for another 3-5 hours.
(§2) After induction, cell culture medium was removed and cells were rinsed once with Ca^2+ and Mg^2+-free Dulbecco's phosphate buffered saline. Cells were then removed from the flask using TrypLE™ Express (Life Technologies) according to the manufacturer's instructions and collected to 50 ml centrifuge tubes. Following two washes in Ca^2+/Mg^2+-free HBSS with 20 mM HEPES (HHnoCa), cells were counted and viability assessed using trypan blue. To load cells with Ca^2+-sensitive dye, they were resuspended in fluo-8 plus Component B (AAT Bioquest Products) diluted in HHnoCa and incubated 15 minutes at 37° C., followed by 30 minutes at room temp (in dark). Cells were then washed and resuspended in HHnoCa to remove extracellular dye and plated in 384-well plates (Falcon, uncoated) at 20,000-30,000 cells/well in a final volume of 25 μl/well.
(§3) FDSS Assay: To each well of the plate, 10 μL test compound, control (MK801) or HHnoCa buffer was added at different concentrations to yield final concentrations of 0.001, 0.003, 0.010, 0.030, 0.100, 0.300, 1.000, 3.000, 10.000, or 30.000 uM final concentration of DMSO of 0.1%. Following 10 minutes pre-incubation in the dark, plates are loaded onto the Hamamatsu FDSS 6000. After collecting baseline fluorescence images, 3 μM glutamate, 3 μM glycine, and 1 mM Ca^2+ in HHnoCa buffer is added to each well, and Ca^2+ is recorded for 3 minutes. Data were processed by computing ratio of fluorescence at the end of data collection to baseline fluorescence to assess degree of Ca^2+ influx inhibition relative to that observed in MK801.
(§4) Table 8 below provides activity of each compound according to the legend that “++++” indicates inhibition at a concentration<100 nM; “+++” indicates inhibition at a concentration between 100 nM and 1 μM of the disclosed compound; “++” indicates inhibition at a concentration of from 1 μM to 10 μM; and “+” indicates inhibition at a concentration>10 μM.

[2] = molecular target: HEK293 cells expressing NR1/NR2B (Homo sapiens (Human), UniProt Q13224); experiment: NR2B NAM Assay (FDSS Ca2+ influx cell assay); assay type: cell-based
HEK293 cells expressing NR1/NR2B (Homo sapiens (Human), UniProt Q13224), sequence (Q13224 27-1484, other chains not shown): as above
Protocol: as §1, §2, §3, §4

[3] = Ca2+ influx inhibition relative to MK801, 3 μM glutamate, 3 μM glycine, 1 mM Ca2+, read-out: NR2B NAM IC50

Compound	IC50 [1]	IC50 [2, 3]	IC50 ([2]; NR2B NAM assay, class of inhibitory concentration, read-out: Activity Category)
COc1cccc(O[C@H]2C[C@@H]3CN(CC(O)c4ccc(O)cc4)C[C@@H]3C2)c1F (stereo partly shown)	< 100 nM	77.7 nM	
COc1cccc(F)c1O[C@H]1C[C@@H]2CN(CC(O)c3ccc(O)cn3)C[C@@H]2C1 (stereo partly shown)	100 to 1000 nM	163 nM	
Oc1ccc(C(O)CN2C[C@H]3C[C@H](Oc4ccc(F)c(F)c4)C[C@H]3C2)nc1 (stereo partly shown)	< 100 nM	17.8 nM	
COc1ccc(S[C@H]2C[C@@H]3CN(CC(O)c4ccc(O)cc4)C[C@@H]3C2)cc1 (stereo partly shown)	100 to 1000 nM	113 nM	
O=C(CN1C[C@H]2C[C@H](Oc3cccnc3)C[C@H]2C1)c1ccc(O)cc1	< 100 nM	81.5 nM	
Cc1ncccc1O[C@H]1C[C@@H]2CN(CC(O)c3ccc(O)cc3)C[C@@H]2C1 (stereo partly shown)	100 to 1000 nM	188 nM	
Oc1ccc(C(O)CN2C[C@H]3C[C@H](Oc4ccc(F)cc4)C[C@H]3C2)nc1F (stereo partly shown)	< 100 nM	30.2 nM	
Oc1ccc(C(O)CN2C[C@H]3C[C@H](Oc4ccc(F)nc4)C[C@H]3C2)cc1 (stereo partly shown)	< 100 nM	74.1 nM	
O=C(CN1C[C@H]2C[C@@H](Oc3ccc(F)cc3)C[C@H]2C1)c1ccc(O)cc1	< 100 nM	53.4 nM	
Cc1ccc(O[C@H]2C[C@@H]3CN(CC(O)c4ccc(O)c(F)c4)C[C@@H]3C2)cn1 (stereo partly shown)	< 100 nM	90 nM	
O=C(CN1C[C@H]2C[C@H](Oc3ccc(F)cc3)C[C@H]2C1)c1ccc(O)c(F)n1	> 10000 nM	10000 nM	
O=C(CN1C[C@H]2C[C@H](Oc3cccnc3F)C[C@H]2C1)c1ccc(O)c(F)c1	> 10000 nM	10000 nM	
Oc1ccc(C(O)CN2C[C@H]3C[C@H](Oc4cccnc4F)C[C@H]3C2)nc1 (stereo partly shown)	< 100 nM	20.9 nM	
O=C(CN1C[C@H]2C[C@H](Oc3ccc(F)cc3)C[C@H]2C1)c1ccc(O)cn1	100 to 1000 nM	699 nM	
O=C(CN1C[C@H]2C[C@@H](Oc3cccnc3)C[C@H]2C1)c1ccc(O)cc1	1000 to 10000 nM	5220 nM	
N#Cc1ccc(O[C@H]2C[C@@H]3CN(CC(O)c4ccc(O)cc4)C[C@@H]3C2)cc1 (stereo partly shown)	< 100 nM	47.4 nM	
Oc1ccc(C(O)CN2C[C@H]3C[C@H](Oc4c(F)cccc4F)C[C@H]3C2)nc1 (stereo partly shown)	< 100 nM	9.6 nM	
Oc1ccc(C(O)CN2C[C@H]3C[C@H](Oc4ccccc4F)C[C@H]3C2)cc1 (stereo partly shown)	< 100 nM	4.44 nM	
COc1ccc(F)c(O[C@H]2C[C@@H]3CN(CC(=O)c4ccc(O)cc4)C[C@@H]3C2)c1	100 to 1000 nM	631 nM	

Compound	IC50 [1]	IC50 [2, 3]	IC50 ([2]; NR2B NAM assay, class of inhibitory concentration, read-out: Activity Category)
O=C(CN1C[C@H]2C[C@H](Sc3ccccc3)C[C@H]2C1)c1ccc(O)cc1	< 100 nM	26.7 nM	
Cc1ccc(O[C@H]2C[C@@H]3CN(CC(O)c4ccc(O)cc4)C[C@@H]3C2)cn1 (stereo partly shown)	100 to 1000 nM	140 nM	
O=C(CN1C[C@H]2C[C@H](Oc3ccc(F)nc3)C[C@H]2C1)c1ccc(O)cn1	> 10000 nM	10000 nM	
Cc1ncccc1O[C@H]1C[C@@H]2CN(CC(=O)c3ccc(O)cc3)C[C@@H]2C1	100 to 1000 nM	134 nM	
O=C(CN1C[C@H]2C[C@H](S(=O)(=O)c3ccccc3)C[C@H]2C1)c1ccc(O)c(F)c1	> 10000 nM	10000 nM	
COc1cccc(F)c1O[C@H]1C[C@@H]2CN(CC(O)c3ccc(O)cc3)C[C@@H]2C1 (stereo partly shown)	100 to 1000 nM	249 nM	
O=C(CN1C[C@H]2C[C@H](Oc3cccnc3)C[C@H]2C1)c1ccc(O)c(F)c1	100 to 1000 nM	434 nM	
N#Cc1ccc(O[C@@H]2C[C@@H]3CN(CC(=O)c4ccc(O)cn4)C[C@@H]3C2)cc1	> 10000 nM	10000 nM	
COC(CN1C[C@H]2C[C@H](Oc3ccc(F)cc3)C[C@H]2C1)c1ccc(O)cc1 (stereo partly shown)	100 to 1000 nM	139 nM	
COc1ccc(O[C@H]2C[C@@H]3CN(CC(=O)c4ccc(O)c(F)c4)C[C@@H]3C2)cc1	100 to 1000 nM	102 nM	
COc1cccc(O[C@H]2C[C@@H]3CN(CC(O)c4ccc(O)cn4)C[C@@H]3C2)c1 (stereo partly shown)	< 100 nM	70.7 nM	
O=C(CN1C[C@H]2C[C@H](Oc3ccncc3)C[C@H]2C1)c1ccc(O)cc1	1000 to 10000 nM	2780 nM	
O=C(CN1C[C@H]2C[C@H](Oc3c(F)cccc3F)C[C@H]2C1)c1ccc(O)cn1	1000 to 10000 nM	1080 nM	
Oc1ccc(C(O)CN2C[C@H]3C[C@H](Oc4ccc(F)cc4F)C[C@H]3C2)cc1 (stereo partly shown)	< 100 nM	8.62 nM	
Cc1ccc(O[C@H]2C[C@@H]3CN(CC(O)c4ccc(O)cn4)C[C@@H]3C2)c(F)c1 (stereo partly shown)	< 100 nM	14.4 nM	
COc1cccc(O[C@H]2C[C@@H]3CN(CC(O)c4ccc(O)cn4)C[C@@H]3C2)c1F (stereo partly shown)	< 100 nM	50.8 nM	
O=C(CN1C[C@H]2C[C@H](Oc3ccc(F)cc3F)C[C@H]2C1)c1ccc(O)cc1	< 100 nM	41.1 nM	
COc1ccc(O[C@@H]2C[C@@H]3CN(CC(O)c4ccc(O)c(F)c4)C[C@@H]3C2)cc1 (stereo partly shown)	< 100 nM	83.9 nM	
Oc1ccc(C(O)CN2C[C@H]3C[C@@H](Oc4ccc(F)c(F)c4)C[C@H]3C2)cc1 (stereo partly shown)	< 100 nM	80.7 nM	

Compound	IC50 [1]	IC50 [2, 3]	IC50 ([2]; NR2B NAM assay, class of inhibitory concentration, read-out: Activity Category)
O=C(CN1C[C@H]2C[C@H](Oc3ccc(F)c(F)c3)C[C@H]2C1)c1ccc(O)cn1	1000 to 10000 nM	1260 nM	
O=C(CN1C[C@H]2C[C@H](Sc3ccc(F)cc3)C[C@H]2C1)c1ccc(O)cc1	< 100 nM	74 nM	
O=C(CN1C[C@H]2C[C@H](Oc3ccccc3)C[C@H]2C1)c1ccc(O)cn1	1000 to 10000 nM	6240 nM	
O=C(CN1C[C@H]2C[C@H](Oc3cncnc3)C[C@H]2C1)c1ccc(O)cc1	1000 to 10000 nM	1040 nM	
O=S(=O)(c1ccccc1)[C@H]1C[C@@H]2CN(CC(O)c3ccc(O)c(F)c3)C[C@@H]2C1 (stereo partly shown)	> 10000 nM	10000 nM	
COc1cccc(O[C@H]2C[C@@H]3CN(CC(=O)c4ccc(O)cn4)C[C@@H]3C2)c1F	1000 to 10000 nM	3780 nM	
Oc1ccc(C(O)CN2C[C@H]3C[C@H](Oc4ccc(F)nc4)C[C@H]3C2)nc1 (stereo partly shown)	100 to 1000 nM	112 nM	
O=C(CN1C[C@H]2C[C@H](Oc3ccc(F)c(F)c3)C[C@H]2C1)c1ccc(O)cc1	< 100 nM	61.6 nM	
COc1ccc(O[C@@H]2C[C@@H]3CN(CC(O)c4ccc(O)cc4)C[C@@H]3C2)cc1 (stereo partly shown)	100 to 1000 nM	112 nM	
O=C(CN1C[C@H]2C[C@H](Oc3ccccc3F)C[C@H]2C1)c1ccc(O)cn1	100 to 1000 nM	219 nM	
COc1ccc(O[C@H]2C[C@@H]3CN(CC(O)c4ccc(O)cc4)C[C@@H]3C2)cc1 (stereo partly shown)	< 100 nM	51.6 nM	
OC(CN1C[C@H]2C[C@H](Oc3ccc(F)cc3)C[C@H]2C1)c1cnn(Cc2ccccc2)c1 (stereo partly shown)	> 10000 nM	10000 nM	
O=C(CN1C[C@H]2C[C@H](Oc3cnccn3)C[C@H]2C1)c1ccc(O)cc1	100 to 1000 nM	149 nM	
N#Cc1cccc(O[C@H]2C[C@@H]3CN(CC(=O)c4ccc(O)cn4)C[C@@H]3C2)c1	> 10000 nM	10000 nM	
Oc1ccc(C(O)CN2C[C@H]3C[C@H](Oc4ccncc4)C[C@H]3C2)cc1 (stereo partly shown)	1000 to 10000 nM	4470 nM	
Oc1ccc(C(O)CN2C[C@H]3C[C@H](Oc4ccccc4)C[C@H]3C2)cc1 (stereo partly shown)	< 100 nM	5.96 nM	
O=C(CN1C[C@H]2C[C@H](Oc3ccccc3Cl)C[C@H]2C1)c1ccc(O)cn1	1000 to 10000 nM	1660 nM	
OC(CN1C[C@H]2C[C@H](Oc3ccc(F)cc3)C[C@H]2C1)c1cn[nH]c1 (stereo partly shown) [drawing 268]		1980 nM	1000 to 10000 nM
